Experimental data from ChEMBL document CHEMBL1201862, “PubChem BioAssay data set” (2004).
Calls of active or inactive are those of the source.

Legend:
Coagulation factor XII = target: T1, Coagulation factor XII (Homo sapiens, UniProt P00748); assay: FXIIa inhibitor potency, concentration-response, biochemical (AID 716); type: functional
T1 sequence (P00748 whole entry): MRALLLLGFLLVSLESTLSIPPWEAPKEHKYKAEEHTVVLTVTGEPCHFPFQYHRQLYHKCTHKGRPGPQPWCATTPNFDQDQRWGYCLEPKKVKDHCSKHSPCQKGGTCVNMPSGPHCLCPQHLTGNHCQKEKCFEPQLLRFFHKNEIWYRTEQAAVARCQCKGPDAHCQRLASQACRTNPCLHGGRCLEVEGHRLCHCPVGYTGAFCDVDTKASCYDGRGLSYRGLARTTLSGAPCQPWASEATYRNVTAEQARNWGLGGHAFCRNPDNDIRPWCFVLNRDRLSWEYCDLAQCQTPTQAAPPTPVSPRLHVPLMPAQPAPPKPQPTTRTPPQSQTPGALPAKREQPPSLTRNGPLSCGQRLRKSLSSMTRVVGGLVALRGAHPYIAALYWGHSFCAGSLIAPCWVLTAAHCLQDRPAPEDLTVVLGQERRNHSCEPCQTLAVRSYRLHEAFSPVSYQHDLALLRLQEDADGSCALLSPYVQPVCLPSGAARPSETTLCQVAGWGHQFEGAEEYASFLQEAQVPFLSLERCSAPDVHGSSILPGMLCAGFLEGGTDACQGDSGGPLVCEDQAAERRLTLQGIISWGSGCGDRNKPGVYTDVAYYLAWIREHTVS

[1] = target: Alkaline phosphatase, placental type (Homo sapiens, UniProt P05187); assay: PLAP enzyme inhibitors, confirmation, biochemical, luminescence (AID 1512); type: functional
Chain of Alkaline phosphatase, placental type (P05187 whole entry): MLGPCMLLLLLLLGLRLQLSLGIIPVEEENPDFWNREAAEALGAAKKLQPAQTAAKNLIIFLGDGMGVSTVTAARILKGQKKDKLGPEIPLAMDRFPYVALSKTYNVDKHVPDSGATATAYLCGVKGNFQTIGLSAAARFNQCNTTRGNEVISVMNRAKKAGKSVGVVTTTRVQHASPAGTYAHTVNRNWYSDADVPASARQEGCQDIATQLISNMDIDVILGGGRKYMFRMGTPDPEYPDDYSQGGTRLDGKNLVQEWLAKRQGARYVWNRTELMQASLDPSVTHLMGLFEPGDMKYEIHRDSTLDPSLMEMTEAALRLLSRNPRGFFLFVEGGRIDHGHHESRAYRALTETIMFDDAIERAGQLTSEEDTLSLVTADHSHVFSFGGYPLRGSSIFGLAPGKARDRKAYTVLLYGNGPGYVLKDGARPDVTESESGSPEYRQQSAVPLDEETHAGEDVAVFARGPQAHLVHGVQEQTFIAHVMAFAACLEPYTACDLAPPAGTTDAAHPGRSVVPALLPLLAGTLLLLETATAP

[2] = target: Glyceraldehyde-3-phosphate dehydrogenase (Homo sapiens, UniProt P04406)
Chain of Glyceraldehyde-3-phosphate dehydrogenase (P04406 whole entry): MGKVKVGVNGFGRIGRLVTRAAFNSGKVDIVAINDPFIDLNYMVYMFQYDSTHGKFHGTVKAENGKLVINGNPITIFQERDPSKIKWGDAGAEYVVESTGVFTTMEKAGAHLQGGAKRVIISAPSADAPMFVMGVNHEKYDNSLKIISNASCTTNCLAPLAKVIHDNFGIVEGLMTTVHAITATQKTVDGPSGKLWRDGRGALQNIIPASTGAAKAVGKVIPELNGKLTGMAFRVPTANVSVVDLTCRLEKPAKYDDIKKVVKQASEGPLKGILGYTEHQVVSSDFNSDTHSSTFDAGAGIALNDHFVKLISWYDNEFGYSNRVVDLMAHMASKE

[3] = target: T2, Alkaline phosphatase, tissue-nonspecific isozyme (Homo sapiens, UniProt P05186); assay: human TNAP enzyme inhibitors, SAR follow-up, biochemical, luminescent, dose response (AID 1056)
T2 sequence (P05186 whole entry): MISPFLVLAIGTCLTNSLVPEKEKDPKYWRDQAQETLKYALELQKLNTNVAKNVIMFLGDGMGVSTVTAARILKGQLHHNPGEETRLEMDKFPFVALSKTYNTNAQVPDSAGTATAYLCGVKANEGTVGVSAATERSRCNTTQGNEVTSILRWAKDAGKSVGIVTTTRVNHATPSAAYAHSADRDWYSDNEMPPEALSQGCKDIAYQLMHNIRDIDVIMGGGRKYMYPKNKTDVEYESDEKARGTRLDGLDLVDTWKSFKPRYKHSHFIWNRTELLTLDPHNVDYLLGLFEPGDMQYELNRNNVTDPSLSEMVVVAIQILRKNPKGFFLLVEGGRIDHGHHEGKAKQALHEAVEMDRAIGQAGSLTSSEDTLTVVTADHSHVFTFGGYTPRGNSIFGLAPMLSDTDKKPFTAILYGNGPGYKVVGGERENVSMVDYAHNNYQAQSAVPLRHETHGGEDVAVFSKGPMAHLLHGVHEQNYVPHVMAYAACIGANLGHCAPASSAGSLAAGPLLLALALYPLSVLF

[4] = target: DNA dC->dU-editing enzyme APOBEC-3A (Homo sapiens, UniProt P31941); assay: APOBEC3A DNA deaminase inhibitors, dose response, biochemical (AID 504722); type: functional
Chain of DNA dC->dU-editing enzyme APOBEC-3A (P31941 whole entry): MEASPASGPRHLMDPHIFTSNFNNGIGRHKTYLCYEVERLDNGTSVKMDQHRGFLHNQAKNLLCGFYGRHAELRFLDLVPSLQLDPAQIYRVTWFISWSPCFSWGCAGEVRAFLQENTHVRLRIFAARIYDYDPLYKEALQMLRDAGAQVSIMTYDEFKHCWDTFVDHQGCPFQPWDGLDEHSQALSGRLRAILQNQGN

[5] = target: DNA dC->dU-editing enzyme APOBEC-3G (Homo sapiens, UniProt Q9HC16); assay: Dose Response confirmation of small molecule APOBEC3G DNA Deaminase Inhibitors via a fluorescence-based single-stranded DNA deaminase assay. [Related pubchem assays (depositor defined):AID493012, AID493028]; type: functional
Chain of DNA dC->dU-editing enzyme APOBEC-3G (Q9HC16 whole entry): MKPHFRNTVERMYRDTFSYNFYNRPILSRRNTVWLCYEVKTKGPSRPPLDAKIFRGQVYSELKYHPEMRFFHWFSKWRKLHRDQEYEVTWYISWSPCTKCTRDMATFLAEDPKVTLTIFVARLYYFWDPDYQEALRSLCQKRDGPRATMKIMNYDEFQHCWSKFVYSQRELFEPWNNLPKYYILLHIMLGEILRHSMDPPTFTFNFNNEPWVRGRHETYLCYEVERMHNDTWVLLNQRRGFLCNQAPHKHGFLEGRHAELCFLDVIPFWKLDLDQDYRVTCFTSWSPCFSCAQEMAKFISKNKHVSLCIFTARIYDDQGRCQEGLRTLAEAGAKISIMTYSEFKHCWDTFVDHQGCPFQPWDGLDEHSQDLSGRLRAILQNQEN

Hexokinase = Hexokinase (Trypanosoma brucei, UniProt Q38C41); assay: Confirmation assay for inhibitors of Trypanosoma brucei hexokinase 1-Analogue-first series. [Related pubchem assays (depositor defined):AID1430, AID1632, AID2516, AID2560, AID2579, AID2600, AID449725, AID492951]; type: functional
Chain of Hexokinase (Q38C41 whole entry): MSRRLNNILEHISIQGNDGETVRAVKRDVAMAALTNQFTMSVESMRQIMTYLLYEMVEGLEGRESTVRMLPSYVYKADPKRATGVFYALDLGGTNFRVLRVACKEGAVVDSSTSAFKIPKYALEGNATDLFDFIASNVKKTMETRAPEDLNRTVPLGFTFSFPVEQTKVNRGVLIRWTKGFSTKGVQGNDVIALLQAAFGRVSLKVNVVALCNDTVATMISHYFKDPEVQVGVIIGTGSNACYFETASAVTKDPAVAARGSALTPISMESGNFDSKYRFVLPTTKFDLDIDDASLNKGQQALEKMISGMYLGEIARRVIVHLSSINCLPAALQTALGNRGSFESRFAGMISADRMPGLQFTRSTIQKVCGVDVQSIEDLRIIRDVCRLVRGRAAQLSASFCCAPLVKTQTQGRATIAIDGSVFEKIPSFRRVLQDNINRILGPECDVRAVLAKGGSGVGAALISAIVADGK

[6] = target: G-protein coupled receptor 55 (Homo sapiens, UniProt Q9Y2T6); assay: GPR55 agonists via beta-arrestin recruitment, primary screen, imaging, U2OS cells, beta-arrestin-GFP redistribution (AID 1961); type: functional
Chain of G-protein coupled receptor 55 (Q9Y2T6 whole entry): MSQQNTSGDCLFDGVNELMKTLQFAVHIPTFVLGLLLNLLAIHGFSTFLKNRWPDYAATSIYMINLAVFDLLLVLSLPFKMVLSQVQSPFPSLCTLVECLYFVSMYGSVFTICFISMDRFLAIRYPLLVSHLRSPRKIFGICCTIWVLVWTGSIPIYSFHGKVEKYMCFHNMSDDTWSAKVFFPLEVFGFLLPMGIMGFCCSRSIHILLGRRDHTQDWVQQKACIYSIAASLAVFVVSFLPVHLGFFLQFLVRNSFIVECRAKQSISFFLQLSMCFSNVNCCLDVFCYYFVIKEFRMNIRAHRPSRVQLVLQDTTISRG

Beta Lactamase = Beta Lactamase (Pseudomonas aeruginosa, UniProt Q932Y6); assay: beta-lactamase reporter inhibitor potency, dose response, artefact control for NOD2-RIPK2 interaction inhibitor project, BLA reporter cells, FRET fluorescence (AID 651552); type: functional, cell-based
Chain of Beta Lactamase (Q932Y6 whole entry): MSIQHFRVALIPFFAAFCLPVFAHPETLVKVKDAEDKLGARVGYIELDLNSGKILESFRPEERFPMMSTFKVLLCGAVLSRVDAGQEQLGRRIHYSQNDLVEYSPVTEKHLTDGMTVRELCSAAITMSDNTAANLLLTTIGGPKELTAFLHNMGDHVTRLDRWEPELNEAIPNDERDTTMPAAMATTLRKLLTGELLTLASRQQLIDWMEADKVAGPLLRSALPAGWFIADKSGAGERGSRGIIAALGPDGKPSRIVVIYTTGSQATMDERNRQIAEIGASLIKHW

[7] = Luminescence Cell-Based Dose Response HTS to Identify Activators of Luciferase Translation or Activity in H4 […] Cells. [Related pubchem assays: 1829 (Project Summary), 1814 (Primary HTS)]; type: functional
H4 = assay: Luminescence Cell-Based Dose Response HTS to Identify Activators of 5'UTR Stem-Loop Driven Prion Protein mRNA Translation in H4 Neuroglioblastoma Cells. [Related pubchem assays: 1829 (Project Summary), 1814 (Primary HTS)]; type: functional; conditions: Homo sapiens
[8] = target: Sphingosine 1-phosphate receptor 1 (Homo sapiens, UniProt P21453); type: functional;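 note: Tango beta-arrestin reporter U2OS cells stimulated with S1P near its EC80; inhibitor potency meaning antagonism of receptor activation by the natural agonist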
Chain of Sphingosine 1-phosphate receptor 1 (P21453 whole entry): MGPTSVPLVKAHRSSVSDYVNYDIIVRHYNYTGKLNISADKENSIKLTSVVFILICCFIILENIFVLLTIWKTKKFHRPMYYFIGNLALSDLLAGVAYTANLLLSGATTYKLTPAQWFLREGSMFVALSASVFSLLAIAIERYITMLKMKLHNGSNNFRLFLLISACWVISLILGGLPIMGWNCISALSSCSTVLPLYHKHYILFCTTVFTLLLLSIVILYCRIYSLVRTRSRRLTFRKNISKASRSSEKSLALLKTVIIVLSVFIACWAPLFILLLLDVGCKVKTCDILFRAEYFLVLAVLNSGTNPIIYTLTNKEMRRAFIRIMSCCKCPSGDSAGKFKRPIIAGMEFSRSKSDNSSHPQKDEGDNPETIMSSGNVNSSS

[9] = growth suppression of PTEN-null colon cells, dose response, cell-based, HCT116 PTEN knockout (AID 1047); type: functional;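 note: HCT116 colon tumor cells with PTEN knocked out; cells exposed to compound for 60 hours before readout; potency for loss of cell viability measured by luminescence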
[10] = Luminescence Cell-Based Dose Confirmation HTS to Identify Activators of 5'UTR Stem-Loop Driven Alpha-Synuclein mRNA Translation in H4 Neuroglioblastoma Cells. [Related pubchem assays: 1829 (Project Summary), 1814 (Primary HTS)]; type: functional
[11] = LGR2 antagonists, dose response, cell-based, HEK293, CRE-luciferase reporter, cherry pick, set 2 (AID 743343); type: functional;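 note: transfected cells were stimulated with diluted bursicon conditioned medium after compound addition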
[12] = target: Photoreceptor-specific nuclear receptor (Homo sapiens, UniProt Q9Y5X4); type: functional, cell-based;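 note: CHO-S cells with Gal4-NCOR and VP16-NR2E3 two-hybrid luciferase reporter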
Chain of Photoreceptor-specific nuclear receptor (Q9Y5X4 whole entry, the tested form may be a part): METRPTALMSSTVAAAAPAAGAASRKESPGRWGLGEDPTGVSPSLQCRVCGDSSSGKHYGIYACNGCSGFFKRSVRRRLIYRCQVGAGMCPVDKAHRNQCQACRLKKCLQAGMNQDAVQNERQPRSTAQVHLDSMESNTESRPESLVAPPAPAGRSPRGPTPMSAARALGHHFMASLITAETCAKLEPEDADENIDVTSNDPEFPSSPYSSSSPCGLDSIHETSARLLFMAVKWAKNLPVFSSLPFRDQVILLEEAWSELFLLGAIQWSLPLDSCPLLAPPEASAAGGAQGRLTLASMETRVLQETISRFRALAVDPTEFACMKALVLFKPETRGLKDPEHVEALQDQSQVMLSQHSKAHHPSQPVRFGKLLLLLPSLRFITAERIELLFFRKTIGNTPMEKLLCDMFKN

INS1 = assay: beta cell apoptosis inhibitors, cytokine rescue, dose response, luminescence, retest (AID 449756); type: functional, cell-based; conditions: Rattus norvegicus;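 note: cell death triggered by IL-1 beta plus TNF-alpha plus IFN-gamma mixture; protective hits raise ATP signal compared with cytokine alone wells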
[13] = MC4R antagonists, dose response, counter-screen for LGR2 antagonist project, cell-based, plate reader, cherry pick (AID 743444); type: functional;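 note: transfected HEK 293 cells stimulated with alpha-MSH peptide; potency of inhibitors of the alpha-MSH evoked signal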
[14] = inhibitors of PGC1a acetylation in cells, dose response, cell-based, cherry-picked samples (AID 720514); type: functional;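 note: potency may reflect raised or lowered acetylation signal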
[15] = Fluorescence-based cell-based high throughput dose response assay for inhibitors of the interaction of nucleotide-binding oligomerization domain containing 2 (NOD2) and the receptor-interacting serine-threonine kinase 2 (RIPK2).; type: functional; conditions: Homo sapiens
[16] = HepG2 cell cytotoxicity, dose response, cytotoxicity control, plate reader, cherry-pick, antagonist series (AID 743416); type: functional, cell-based
[17] = target: T3, Sphingosine 1-phosphate receptor 4 (Homo sapiens, UniProt O95977); assay: Late stage fluorescence dose response cell-based screening assay for antagonists of the Sphingosine 1-Phosphate Receptor 4 (S1P4). [Related pubchem assays: 1524 (Confirmation screen (S1P4 antagonists).), 1510 (Primary screen (S1P4 antagonists).), 1853 (Summary AID (S1P4 antagonists).), 1692 (Dose response screen (S1P4 antagonists).)]; type: functional
T3 sequence (O95977 whole entry): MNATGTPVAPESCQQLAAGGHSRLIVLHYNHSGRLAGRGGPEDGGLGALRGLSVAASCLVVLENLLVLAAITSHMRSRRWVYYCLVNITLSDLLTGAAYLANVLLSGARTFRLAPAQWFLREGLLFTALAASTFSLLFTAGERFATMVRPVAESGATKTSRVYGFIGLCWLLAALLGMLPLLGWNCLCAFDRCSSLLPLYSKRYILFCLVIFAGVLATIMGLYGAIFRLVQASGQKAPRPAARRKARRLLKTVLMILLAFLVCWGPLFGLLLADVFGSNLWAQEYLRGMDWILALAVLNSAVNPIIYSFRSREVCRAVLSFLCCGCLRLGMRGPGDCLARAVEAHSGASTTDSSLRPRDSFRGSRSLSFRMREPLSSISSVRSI

Paired box protein Pax-8 = Paired box protein Pax-8 (Homo sapiens, UniProt Q06710); assay: inhibitors of PAX8-driven TPO luciferase reporter, dose response, RMG-I cells, cherry-pick (AID 687027); type: functional, cell-based;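 note: luciferase reporter driven by Pax8 target thyroperoxidase promoter measured by SteadyGlo luminescence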
Chain of Paired box protein Pax-8 (Q06710 whole entry): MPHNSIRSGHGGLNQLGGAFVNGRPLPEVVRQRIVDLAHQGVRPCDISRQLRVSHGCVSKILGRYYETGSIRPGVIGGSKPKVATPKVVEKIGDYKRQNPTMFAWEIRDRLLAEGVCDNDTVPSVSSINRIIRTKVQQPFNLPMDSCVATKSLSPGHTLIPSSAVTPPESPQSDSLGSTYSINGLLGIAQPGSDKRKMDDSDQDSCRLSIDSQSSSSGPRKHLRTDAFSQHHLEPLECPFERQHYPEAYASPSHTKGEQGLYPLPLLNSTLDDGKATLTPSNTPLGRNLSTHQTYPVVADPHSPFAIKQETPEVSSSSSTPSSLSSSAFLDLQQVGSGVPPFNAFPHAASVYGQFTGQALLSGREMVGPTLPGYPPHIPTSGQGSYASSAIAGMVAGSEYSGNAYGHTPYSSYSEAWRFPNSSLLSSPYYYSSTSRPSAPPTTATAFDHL

[18] = HEK293 cell cytotoxicity, dose response, cytotoxicity control, plate reader, cherry-picked samples (AID 743446); type: functional, cell-based
[19] = A549 cell cytotoxicity, dose response, cytotoxicity control, plate reader, cherry-pick, antagonist series (AID 743412); type: functional, cell-based
[20] = target: T3, Sphingosine 1-phosphate receptor 4; assay: Fluorescence dose response cell-based high throughput screening assay for antagonists of the Sphingosine 1-Phosphate Receptor 4 (S1P4). [Related pubchem assays: 1524 (Confirmation in triplicates.), 1510 (Primary screen.)]; type: functional
[21] = growth suppression of beta-catenin-knockout colon cells, dose response, cell-based, HCT116, human colon tumor (AID 1045); type: functional;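 note: HCT116 colon tumor cells with beta catenin knocked out; cells exposed to compound for 60 hours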

Question: Which IC50 (Coagulation factor XII) does the source give for `CC(C)(C)NC(=O)CN(C(=O)C1CSC(=O)C1)c1ccc2c(c1)OCCO2` (configuration not stated) here?
Answer: The IC50 was > 50 µM (inactive).

Question: For `COc1cccc(Cc2nc(N)nn2-c2ccccc2)c1`, which IC50 [1] is on record?
Answer: Its IC50 is > 100 µM (inactive).

Question: What about the IC50 [2] of the same molecule?
Answer: Its IC50 is > 100 µM (not active).

Question: What about the IC50 [3] of the same molecule?
Answer: Its IC50 is > 100 µM (inactive).

Question: With `Cn1c(S)nnc1-c1ccc(C(C)(C)C)cc1` as the molecule, how does the IC50 [4] read?
Answer: Its IC50 is > 100 µM (inactive).

Question: What about the IC50 [5] of the same molecule?
Answer: The IC50 was 4.79 µM (active).

Question: With `CCc1ccc(C(=O)Nc2cc(Br)ccc2C(=O)O)cc1` as the molecule, how does the IC50 (Hexokinase) read?
Answer: Its IC50 is 5.45 µM (active).

Question: With `O=C(NCc1cccnc1)/C(=C\c1ccc(-c2ccc(Cl)c(Cl)c2)o1)S(=O)(=O)c1ccccc1` as the molecule, how does the EC50 [6] read?
Answer: The EC50 was 1.61 µM (active).

Question: And the IC50 (Beta Lactamase)?
Answer: The IC50 was 26.7 µM (inactive).

Question: What about the EC50 [7] of the same molecule?
Answer: Its EC50 is > 120 µM (not active).

Question: What about the EC50 (H4) of the same molecule?
Answer: The EC50 was > 120 µM (not active).

Question: What about the IC50 [8] of the same molecule?
Answer: Its IC50 is 8.81 µM (active).

Question: And the EC50 [9]?
Answer: The EC50 was 2.92 µM (active).

Question: What about the EC50 [10] of the same molecule?
Answer: Its EC50 is > 120 µM (not active).

Question: And the AC50 [11]?
Answer: Its AC50 is 8.45 µM (active).

Question: And the IC50 [12]?
Answer: Its IC50 is 4.08 µM (active).

Question: And the AC50 (INS1)?
Answer: The AC50 was 3.63 µM (active).

Question: What about the AC50 [13] of the same molecule?
Answer: The AC50 was 7.86 µM (active).

Question: What about the AC50 [14] of the same molecule?
Answer: The AC50 was 3.52 µM (active).

Question: And the IC50 [15]?
Answer: Its IC50 is 4.34 µM (active).

Question: And the AC50 [16]?
Answer: The AC50 was 7.96 µM (active).

Question: What about the IC50 [17] of the same molecule?
Answer: Its IC50 is > 50 µM (not active).

Question: What about the AC50 (Paired box protein Pax-8) of the same molecule?
Answer: Its AC50 is 4.66 µM (active).

Question: What about the AC50 [18] of the same molecule?
Answer: The AC50 was 8.51 µM (active).

Question: What about the AC50 [19] of the same molecule?
Answer: Its AC50 is 6.6 µM (active).

Question: What about the IC50 [20] of the same molecule?
Answer: Its IC50 is 0.965 µM (active).

Question: What about the EC50 [21] of the same molecule?
Answer: Its EC50 is 2.39 µM (active).
